According to US20230321199A1, “USES OF PTHrP ANALOGUE IN REDUCING FRACTURE RISK” (Radius Health, Inc., priority 2015, published 2023):
Read-outs that look alike come from different tables or passages of the source. Marks after values point to notes of the source that are not given here.

How the values were obtained:
[1] = test system: postmenopausal women with osteoporosis; conditions: in vivo
Protocol: (§2) Safety evaluations performed in the ACTIVE trial included physical examinations, vital signs, 12-lead electrocardiograms, or ECGs, clinical laboratory tests and monitoring, and recording of adverse events. Specific safety assessments included pre-dose and post-dose (four hours) determination of serum calcium, determination of creatinine clearance, post-dose ECG assessments at selected visits, and assessments of postural hypotension (60 minutes post-dose) at selected clinic visits.
(§3) The ACTIVE trial also evaluated several potential safety measures, including blood calcium levels, orthostatic hypotension, nausea, dizziness, and injection-site reactions.

[2] = test system: postmenopausal women with osteoporosis; conditions: in vivo; remark: listed apart in the source
[3] = test system: postmenopausal women with osteoporosis; test: ACTIVE trial: adverse events; conditions: 18-month ACTIVE trial
Protocol: as §2, §3

[4] = test system: postmenopausal women with osteoporosis; test: ACTIVE phase 3 trial: fracture rates and fracture risk over 18 months; format: in vivo, human
Protocol: The ACTIVE phase 3 fracture prevention trial was conducted for abaloparatide in postmenopausal women with osteoporosis who were otherwise healthy. The enrolled subjects were treated with 80 micrograms (μg) of abaloparatide, a matching placebo, or the approved daily dose of 20 μg of teriparatide for 18 months. The ACTIVE trial evaluated fracture rates, fracture risks, BMD, and bone turnover biomarkers (e.g., CTX and P1NP) in all patient groups.
Fracture risk reduction and hazard ratio (HR) were derived from Kaplan-Meier (KM) curve.
The ACTIVE pivotal Phase 3 fracture prevention trial for the PTHrP analogue abaloparatide, Study BA058-05-003 (see ClinicalTrials.gov), was a randomized, double-blind, placebo-controlled trial in postmenopausal osteoporotic women randomized to receive daily doses of one of the following for 18 months: 80 micrograms (μg) of abaloparatide; a matching placebo; or the approved daily dose of 20 μg of teriparatide. Treatment with abaloparatide at a daily dose of 80 μg or placebo remained blinded to all parties throughout the study. Teriparatide used was a proprietary prefilled drug and device combination that could not be repackaged. Therefore, its identity could not be blinded to treating physicians and patients once use began. Study medication was self-administered daily by subcutaneous injection for a maximum of 18 months. All enrolled patients also received calcium and vitamin D supplementation from the time of enrollment until the end of the treatment period. It was recommended to patients that they also continue these supplements through the one-month follow-up period.
The study enrolled otherwise healthy ambulatory women aged 49 to 86 (inclusive) who had been postmenopausal for at least five years, met the study entry criteria, and had provided written informed consent. […] All patients were to be in good general health as determined by medical history, physical examination (including vital signs), and clinical laboratory testing. This study population contained a patient population reflective of the type of severe osteoporosis patients that specialists would be expected to treat in their practices.
(§1) As set forth in the ACTIVE protocol, the primary efficacy endpoint was the number of patients treated with abaloparatide with incident vertebral fractures at the end of treatment as compared to those who received placebo. The pre-specified secondary efficacy parameters included, among other endpoints, reduction in the incidence/risk of non-vertebral fractures; changes in BMD of the spine, hip, and femoral neck from baseline to end of treatment as assessed by DXA and as compared to teriparatide; and the number of hypercalcemic events in abaloparatide treated patients when compared to teriparatide at end of treatment.

[5] = test system: postmenopausal women with osteoporosis; test: ACTIVE trial: BMD of lumbar spine, total hip, femoral neck by DXA; format: in vivo, human
Protocol: BMD and bone turnover biomarkers (CTX and P1NP) were also evaluated in all patient groups to compare the effects of abaloparatide versus teriparatide.
as §1
Comparative analyses of abaloparatide versus teriparatide were completed on the following BMD secondary endpoints using a Mixed-Effect Model for Repeated Measures (MMRM) method, shown in Table 4 below:
Comparative analyses of the PTHrP analogues abaloparatide and teriparatide were completed on the following BMD secondary endpoints using an ANCOVA approach, shown in Table 5 below: […]

[6] = test system: postmenopausal women with osteoporosis; test: Phase 2 dose-finding trial: 24-week BMD by DXA; format: in vivo, human; conditions: 24 weeks; 20 μg daily SC
Source text: Healthy postmenopausal women between the ages of 55 to 85 (based on a 5-year history of amenorrhea and an elevated serum level of FSH) were enrolled in the study if they met one of the following the following definitions of osteoporosis: • 1) DXA-derived BMD T-score≤−2.5 at the lumbar spine or femoral neck or total hip. • 2) DXA-derived BMD T-score ≤−2.0 with a history of a prior low trauma forearm, humerus, vertebral, sacral, pelvic, hip, femoral, or tibial fracture within the past five years. • 3) DXA-derived BMD T-score ≤−2.0 with an additional osteoporosis risk factor such as age >65 years or strong maternal history of osteoporosis (defined as a fracture related to osteoporosis or osteoporosis itself determined by BMD criteria).
Dual X-ray absorptiometry: DXA scans were obtained at each local site and then sent to a central imaging reader (BioClinica Inc. Newton, PA) where they underwent a quality control review and then analyzed according to each manufacturers guidelines. Scans performed during the treatment period on the same instrument used for the baseline scan were acquired. Each study site performed Instrument Quality Control over time (instrument standardization and phantom calibration) that was reviewed by the central reader.

[7] = test system: postmenopausal women with osteoporosis; test: Phase 2 trial: safety, serum calcium, antibody formation; conditions: 24 weeks; 20 μg daily SC
[8] = test system: postmenopausal women with osteoporosis; test: Phase 2 trial 24-week extension (48 weeks): BMD and tolerability; conditions: 20 μg daily SC

Question: With CC[C@H](C)[C@H](NC(=O)[C@H](CO)NC(=O)[C@H](CCCCN)NC(=O)CNC(=O)[C@H](CCCCN)NC(=O)[C@H](CC(=O)O)NC(=O)[C@H](Cc1cnc[nH]1)NC(=O)[C@H](CC(C)C)NC(=O)[C@H](CC(C)C)NC(=O)[C@H](CCC(N)=O)NC(=O)[C@H](Cc1cnc[nH]1)NC(=O)[C@H](CCC(=O)O)NC(=O)[C@H](CO)NC(=O)[C@@H](NC(=O)[C@H](C)N)C(C)C)C(=O)N[C@@H](CCC(N)=O)C(=O)N[C@@H](CC(=O)O)C(=O)N[C@@H](CC(C)C)C(=O)N[C@@H](CCCNC(=N)N)C(=O)N[C@@H](CCCNC(=N)N)C(=O)N[C@@H](CCCNC(=N)N)C(=O)N[C@@H](CCC(=O)O)C(=O)N[C@@H](CC(C)C)C(=O)N[C@@H](CC(C)C)C(=O)N[C@@H](CCC(=O)O)C(=O)N[C@@H](CCCCN)C(=O)N[C@@H](CC(C)C)C(=O)N[C@@H](CC(C)C)C(=O)NC(C)(C)C(=O)N[C@@H](CCCCN)C(=O)N[C@@H](CC(C)C)C(=O)N[C@@H](Cc1cnc[nH]1)C(=O)N[C@H](C(=O)N[C@@H](C)C(N)=O)[C@@H](C)O [abaloparatide, [Glu^22,25, Leu^23,28,31, Aib^29, Lys^26,30]hpTHrP(1-34)NH2] as the compound, how does the “AE: Arthralgia” value [1] read?
Answer: Its value is 8.6%.

Question: And the “AE: Back Pain” value [1]?
Answer: The value was 8.5%.

Question: What about the “AE: Constipation” value [1] of the same compound?
Answer: Its value is 4.5%.

Question: What about the “AE: Dizziness” value [1] of the same compound?
Answer: Its value is 10.0%‡.

Question: What about the “AE: Headache” value [1] of the same compound?
Answer: The value was 7.5%.

Question: And the “AE: Hypercalcemia (serum albumin-corrected calcium value ≥ 10.7 mg/dL)” value [1]?
Answer: Its value is 3.41%^†.

Question: And the “AE: Hypertension” value [1]?
Answer: Its value is 7.2%.

Question: What about the “AE: Nasopharyngitis” value [1] of the same compound?
Answer: The value was 5.8%.

Question: What about the “AE: Nausea” value [1] of the same compound?
Answer: Its value is 8.3%‡.

Question: What about the “AE: Pain in extremity” value [1] of the same compound?
Answer: The value was 4.9%.

Question: What about the “AE: Palpitations” value [1] of the same compound?
Answer: The value was 5.1%‡.

Question: What about the “AE: Upper respiratory tract infection” value [1] of the same compound?
Answer: The value was 8.3%.

Question: And the “AE: Urinary tract infection” value [1]?
Answer: Its value is 5.2%.

Question: And the “anti-abaloparatide antibody titer in positive patients” value [2]?
Answer: The value was ≤ 1:20.

Question: What about the “AE: Influenza” value [3] of the same compound?
Answer: The value was 6.3%.

Question: For CC[C@H](C)[C@H](NC(=O)[C@H](CCC(=O)O)NC(=O)[C@H](CO)NC(=O)[C@@H](NC(=O)[C@@H](N)CO)C(C)C)C(=O)N[C@@H](CCC(N)=O)C(=O)N[C@@H](CC(C)C)C(=O)N[C@@H](CCSC)C(=O)N[C@@H](Cc1cnc[nH]1)C(=O)N[C@@H](CC(N)=O)C(=O)N[C@@H](CC(C)C)C(=O)NCC(=O)N[C@@H](CCCCN)C(=O)N[C@@H](Cc1cnc[nH]1)C(=O)N[C@@H](CC(C)C)C(=O)N[C@@H](CC(N)=O)C(=O)N[C@@H](CO)C(=O)N[C@@H](CCSC)C(=O)N[C@@H](CCC(=O)O)C(=O)N[C@@H](CCCN=C(N)N)C(=O)N[C@H](C(=O)N[C@@H](CCC(=O)O)C(=O)N[C@@H](Cc1c[nH]c2ccccc12)C(=O)N[C@@H](CC(C)C)C(=O)N[C@@H](CCCN=C(N)N)C(=O)N[C@@H](CCCCN)C(=O)N[C@@H](CCCCN)C(=O)N[C@@H](CC(C)C)C(=O)N[C@@H](CCC(N)=O)C(=O)N[C@@H](CC(=O)O)C(=O)N[C@H](C(=O)N[C@@H](Cc1cnc[nH]1)C(=O)N[C@@H](CC(N)=O)C(=O)N[C@@H](Cc1ccccc1)C(=O)O)C(C)C)C(C)C [teriparatide, hPTH(1-34)], which “hazard ratio, incident clinical fractures, as compared to placebo” value [4] is on record?
Answer: Its value is 0.71.

Question: And the “hazard ratio, non-vertebral fractures, as compared to placebo” value [4]?
Answer: The value was 0.72.

Question: And the “fracture rate, non-vertebral fractures (rate given with hazard ratio)” value ([4]; placebo group 4.7%)?
Answer: Its value is 3.3%.

Question: What about the “fracture rate, incident clinical fractures (rate given with hazard ratio)” value ([4]; placebo group 8.3%) of the same compound?
Answer: Its value is 4.8%.

Question: What about the “Mean Percent Change In BMD From Baseline (ANCOVA), Femoral Neck” value ([5]; 6 mo) of the same compound?
Answer: The value was 0.80%*.

Question: What about the “Mean Percent Change in BMD From Baseline (MMRM), Femoral Neck” value ([5]; 6 mo) of the same compound?
Answer: The value was 0.87%*.

Question: What about the “Mean Percent Change In BMD From Baseline (ANCOVA), Lumbar Spine” value ([5]; 12 mo) of the same compound?
Answer: The value was 7.40%*.

Question: What about the “subjects with BMD increases of >3% at all three sites” value ([5]; 12 months) of the same compound?
Answer: The value was 19.8%.

Question: What about the “subjects with BMD increases of >3% at all three sites” value ([5]; 18 months) of the same compound?
Answer: The value was 32.0%.

Question: And the “subjects with increased BMD of >3% at all three sites (lumbar spine, total hip, femoral neck)” value ([5]; month 6)?
Answer: The value was 6.5%.

Question: What about the “femoral neck BMD increase (±SD)” value [6] of the same compound?
Answer: The value was 1.1±4.6%.

Question: And the “total hip BMD increase (±SD)” value [6]?
Answer: Its value is 0.5±3.9%.

Question: And the “AE: Arthralgia” value [3]?
Answer: Its value is 8.6%.

Question: What about the “AE: Back Pain” value [3] of the same compound?
Answer: Its value is 7.2%‡.

Question: What about the “AE: Constipation” value [3] of the same compound?
Answer: The value was 4.2%.

Question: What about the “AE: Dizziness” value [3] of the same compound?
Answer: Its value is 7.3%.

Question: And the “AE: Headache” value [3]?
Answer: The value was 6.2%.

Question: What about the “AE: Hypercalciuria” value [3] of the same compound?
Answer: Its value is 12.5%‡.

Question: What about the “AE: Hypertension” value [3] of the same compound?
Answer: Its value is 5.0%.

Question: What about the “AE: Influenza” value [3] of the same compound?
Answer: Its value is 4.2%.

Question: And the “AE: Nasopharyngitis” value [3]?
Answer: The value was 6.5%.

Question: And the “AE: Nausea” value [3]?
Answer: Its value is 5.1%‡.

Question: And the “AE: Pain in extremity” value [3]?
Answer: Its value is 5.1%.

Question: And the “AE: Palpitations” value [3]?
Answer: The value was 1.6%‡.

Question: And the “AE: Upper respiratory tract infection” value [3]?
Answer: The value was 8.9%.

Question: What about the “AE: Urinary tract infection” value [3] of the same compound?
Answer: Its value is 5.0%.

Question: And the incidence of dizziness [7]?
Answer: The incidence of dizziness was 4%.

Question: What about the “femoral neck BMD increase” value ([8]; 48 weeks) of the same compound?
Answer: Its value is 2.2%.

Question: What about the “lumbar spine BMD increase” value ([8]; 48 weeks) of the same compound?
Answer: The value was 8.6%.

Question: What about the “total hip BMD increase” value ([8]; 48 weeks) of the same compound?
Answer: The value was 1.3%.

Question: What about the “treatment-related TEAEs” value ([8]; extension study) of the same compound?
Answer: The value was 21%.
